The term IC50 denotes the concentration needed to halve the response being measured. A low value points to greater potency in that assay.

These results are taken from US20240270741A1 (Cogent Biosciences, Inc., priority 2023, published 2024).

The structures appear in SMILES notation.

Sequence of FGFR2 (P21802 399-821 limits assumed): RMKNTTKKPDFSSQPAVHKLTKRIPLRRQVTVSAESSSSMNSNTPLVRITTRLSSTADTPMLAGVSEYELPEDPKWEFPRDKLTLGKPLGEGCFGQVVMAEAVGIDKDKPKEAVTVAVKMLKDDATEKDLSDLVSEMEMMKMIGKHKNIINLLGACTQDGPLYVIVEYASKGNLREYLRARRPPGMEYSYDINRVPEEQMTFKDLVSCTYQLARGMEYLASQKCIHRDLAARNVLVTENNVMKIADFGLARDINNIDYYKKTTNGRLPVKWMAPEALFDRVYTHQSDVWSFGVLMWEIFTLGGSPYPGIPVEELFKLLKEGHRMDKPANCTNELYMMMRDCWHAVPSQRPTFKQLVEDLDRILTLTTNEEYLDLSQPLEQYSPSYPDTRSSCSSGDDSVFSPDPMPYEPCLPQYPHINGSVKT

The first assay has as its target FGFR2 (Homo sapiens, UniProt P21802). Description: FGFR wild type enzyme assay (HTRF KinEASE-TK), FGFR2. The following applies: Enz FGFR2 (nM).
`N#Cc1cccc(Sc2cc(-c3cnn(C4CCNCC4)c3)cn3ncc(C#N)c23)c1` [Example 69, 4-((3-cyanophenyl)thio)-6-(1-(piperidin-4-yl)-1H-pyrazol-4-yl)pyrazolo[1,5-a]pyridine-3-carbonitrile] gave an IC50 of 8 nM.
`Cc1c(-c2cc(Sc3ccccn3)c3c(C#N)cnn3c2)cnn1C1CCN(C(=O)[C@@H]2CCCN2C)CC1` [Example 99, 6-(5-methyl-1-(1-(methyl-L-prolyl)piperidin-4-yl)-1H-pyrazol-4-yl)-4-(pyridin-2-ylthio)pyrazolo[1,5-a]pyridine-3-carbonitrile] registered an IC50 of 5 nM.
Same read-out and setting: the value for `N#Cc1cnn2cc(-c3ccc(OCCN4CCOCC4)nc3)cc(Sc3ccccn3)c12` [Example 96, 6-[6-(2-morpholinoethoxy)-3-pyridyl]-4-(2-pyridylsulfanyl) pyrazolo[1,5-a]pyridine-3-carbonitrile] was 82 nM; that for `Cc1c(-c2cc(Sc3ccccc3C#N)c3c(C#N)cnn3c2)cnn1[C@H]1CCNC1` [Example 122, 4-(2-cyanophenyl)sulfanyl-6-[5-methyl-1-[(3S)-pyrrolidin-3-yl]pyrazol-4-yl]pyrazolo[1,5-a]pyridine-3-carbonitrile] was 1 nM; that for `N#Cc1cnn2cc(-c3cnn([C@H]4CCCNC4)c3)cc(Sc3ccncn3)c12` [Example 76, 6-[1-[(3S)-3-piperidyl]pyrazol-4-yl]-4-pyrimidin-4-ylsulfanyl-pyrazolo[1,5-a]pyridine-3-carbonitrile] was 237 nM.
Same read-out and setting: the value for `Cc1c(-c2cc(Sc3ncccc3F)c3c(C#N)cnn3c2)cnn1C1CCN(CCO)CC1` [Example 108, 4-[(3-fluoro-2-pyridyl)sulfanyl]-6-[5-methyl-1-(1-methyl-4-piperidyl)pyrazol-4-yl]pyrazolo[1,5-a]pyridine3-carbonitrilee] was 2 nM; that for `Cc1ccnc(Sc2cc(-c3cnn([C@H]4CCCNC4)c3)cn3ncc(C#N)c23)c1` [Example 59, 4-[(4-methyl-2-pyridyl)sulfanyl]-6-[1-[(3S)-3-piperidyl]pyrazol-4-yl]pyrazolo[1,5-a]pyridine-3-carbonitrile] was 11 nM.
Same read-out and setting: the value for `N#Cc1cnn2cc(-c3cnn([C@H]4CCCN(CCO)C4)c3)cc(Sc3ccccn3)c12` [Example 91, 6-[1-[(3S)-1-(2-hydroxyethyl)-3-piperidyl]pyrazol-4-yl]-4-(2-pyridylsulfanyl)pyrazolo[1,5-a]pyridine-3-carbonitrile] was 2 nM.
The compound `N#Cc1cnn2cc(-c3cnn(C4CCN(CCO)CC4)c3)cc(Sc3ccccn3)c12` [Example 90, 6-[1-[1-(2-hydroxyethyl)-4-piperidyl]pyrazol-4-yl]-4-(2-pyridylsulfanyl)pyrazolo[1,5-a]pyridine-3-carbonitrile] gave an IC50 of 2 nM.
On the same count and under the same terms, the value for `N#Cc1cccc(Sc2cc(-c3cnn([C@H]4CCCNC4)c3)cn3ncc(C#N)c23)n1` [Example 77, 4-[(6-cyano-2-pyridyl)sulfanyl]-6-[1-[(3S)-3-piperidyl]pyrazol-4-yl]pyrazolo[1,5-a]pyridine-3-carbonitrile] was 99 nM.
Turning to `Cc1c(-c2cc(Sc3ccccc3F)c3c(C#N)cnn3c2)cnn1C1CCNCC1` [Example 118, 4-(2-fluorophenyl)sulfanyl-6-[5-methyl-1-(4-piperidyl)pyrazol-4-yl]pyrazolo[1,5-a]pyridine-3-carbonitrile], the half-inhibitory concentration (IC50) came to 1 nM.

Still in this assay, the particulars now being: Enz FGFR2 (nM), FGFR2 wild type enzyme.
On to `CC(=O)N1C[C@H]2C[C@H](n3ncc(-c4cc(Sc5ncccc5F)c5c(C#N)cnn5c4)c3C)C[C@H]2C1` [Example 245, 6-(1-((3aR,5s,6aS)-2-acetyloctahydrocylcopenta [c]pyrrol-5-yl)-5-methyl-1H-pyrazol-4-yl)-4-((3-fluoropyridin-2-yl)thio)pyrazolo[1,5-a]pyridine-3-carbonitrile], for which the IC50 came to 2.5 nM.
The same measure, in the same setting: the value for `Cc1c(-c2cc(Sc3ncccc3F)c3c(C#N)cnn3c2)cnn1C[C@@H]1CNCCO1` [Example 233, (S)-4-((3-fluoropyridin-2-yl)thio)-6-(5-methyl-1-(morpholin-2-ylmethyl)-1H-pyrazol-4-yl)pyrazolo[1,5-a]pyridine-3-carbonitrile] was 6 nM; that for `CCN[C@H]1CC[C@@H](n2ncc(-c3cc(Sc4ncccc4F)c4c(C#N)cnn4c3)c2C)CC1` [Example 242, 6-(1-((1s,4s)-4-(ethylamino)cyclohexyl)-5-methyl-1H-pyrazol-4-yl)-4-((3-fluoropyridin-2-yl)thio)pyrazolo[1,5-a]pyridine-3-carbonitrile] was 1 nM; that for `CCN[C@H]1CC[C@@H](n2ncc(-c3cc(Sc4ccccc4C#N)c4c(C#N)cnn4c3)c2C)CC1` [Example 250, 4-((2-cyanophenyl)thio)-6-(1-((1s,4s)-4-(ethylamino)cylcohexyl)-5-methyl-1H-pyrazol-4-yl)pyrazolo[1,5-a]pyridine-3-carbonitrile] was 0.4 nM.
On the same count and under the same terms, the value for `Cc1c(-c2cc(Sc3ncccc3F)c3c(C#N)cnn3c2)cnn1CC1CCN(CC(=O)N(C)C)CC1` [Example 217, 2-(4-((4-(3-cyano-4-((3-fluoropyridin-2-yl)thio)pyrazolo[1,5-a]pyridin-6-yl)-5-methyl-1H-pyrazol-1-yl)methyl)piperidin-1-yl)-N,N-dimethylacetamide] was 6 nM.
The same measure, in the same setting: the value for `CN[C@H]1CC[C@@H](n2ncc(-c3cc(Sc4ccc(F)cc4C#N)c4c(C#N)cnn4c3)c2C)CC1` [Example 255, 4-((2-cyano-4-fluorophenyl)thio)-6-(5-methyl-1-((1s,4s)-4-(methylamino)cyclohexyl)-1H-pyrazol-4-yl)pyrazolo[1,5-a]pyridine-3-carbonitrile] was 0.3 nM.
`CC(=O)N[C@H]1CC[C@@H](n2ncc(-c3cc(Sc4ccc(F)cc4C#N)c4c(C#N)cnn4c3)c2C)CC1` [Example 299, N-((1s,4S)-4-(4-(3-cyano-4-((2-cyano-4-fluorophenyl)thio)pyrazolo [1,5-a]pyridin-6-yl)-5-methyl-1H-pyrazol-1-yl)cyclohexyl)acetamide] yielded an IC50 of 1 nM.
Same read-out and setting: the value for `Cc1c(-c2cc(Sc3ncccc3F)c3c(C#N)cnn3c2)cnn1[C@H](C)[C@H](O)CO` [Example 197, 6-(1-((2R,3S)-3,4-dihydroxybutan-2-yl)-5-methyl-1H-pyrazol-4-yl)-4-((3-fluoropyridin-2-yl)thio)pyrazolo[1,5-a]pyridine-3-carbonitrile] was 3 nM; that for `Cc1c(-c2cc(Sc3ncccc3F)c3c(C#N)cnn3c2)cnn1C1CCC(N(C)C)CC1` (stereo not drawn) [Example 171] was 1 nM.

Staying with this assay, now noted: Enz FGFR2 (nM), FGFR2 wild type enzyme assay.
In turn, `Cc1c(-c2cc(Sc3ccc(F)cc3C#N)c3c(C#N)cnn3c2)cnn1C1CCN([C@@H](C)CO)CC1` [Example 380, (S)-4-((2-cyano-4-fluorophenyl)thio)-6-(1-(1-(1-hydroxypropan-2-yl)piperidin-4-yl)-5-methyl-1H-pyrazol-4-yl)pyrazolo[1,5-a]pyridine-3-carbonitrile] came in with an IC50 of 1 nM.
On the same count and under the same terms, the value for `CO[C@H]1CC[C@H](n2ncc(-c3cc(Sc4ccc(F)cc4C#N)c4c(C#N)cnn4c3)c2C)CC1` [Example 579, 4-((2-cyano-4-fluorophenyl)thio)-6-(1-((1r,4r)-4-methoxycyclohexyl)-5-methyl-1H-pyrazol-4-yl)pyrazolo[1,5-a]pyridine-3-carbonitrile] was 1.5 nM; that for `Cc1c(-c2cc(Sc3ncc(F)cc3F)c3c(C#N)cnn3c2)cnn1[C@@H]1CCN(C)C(C)(C)C1` [Example 390, (R)-4-((3,5-difluoropyridin-2-yl)thio)-6-(5-methyl-1-(1,2,2-trimethylpiperidin-4-yl)-1H-pyrazol-4-yl)pyrazolo[1,5-a]pyridine-3-carbonitrile] was 42 nM.
On the same count and under the same terms, the value for `C[C@]1(O)CC[C@@H](n2cc(-c3cc(Sc4ccccc4C#N)c4c(C#N)cnn4c3)cn2)CC1` [Example 503, 4-((2-cyanophenyl)thio)-6-(1-((1s,4s)-4-hydroxy-4-methylcyclohexyl)-1H-pyrazol-4-yl)pyrazolo[1,5-a]pyridine-3-carbonitrile] was 0.5 nM; that for `CN1CCN(c2ccc(-c3cc(Sc4ccccc4C#N)c4c(C#N)cnn4c3)cc2)CC1` [Example 469, 4-((2-cyanophenyl)thio)-6-(4-(4-methylpiperazin-1-yl)phenyl)pyrazolo[1,5-a]pyridin-3-carbonitrile] was 0.2 nM; that for `C[C@H](O)C(=O)N1CC[C@@H](n2cc(-c3cc(Sc4ccccc4C#N)c4c(C#N)cnn4c3)cn2)C1` [Example 606, 4-((2-cyanophenyl)thio)-6-(1-((R)-1-((S)-2-hydroxypropanoyl)pyrrolidin-3-yl)-1H-pyrazol-4-y)pyrazolo[1,5-a]pyridine-3-carbonitrile] was 0.5 nM.
On the same count and under the same terms, the value for `Cc1c(-c2cc(Sc3ccc(F)cc3C#N)c3c(C#N)cnn3c2)cnn1[C@@H]1CCCC[C@H]1O` [Example 632, 4-((2-cyano-4-fluorophenyl)thio)-6-(1-((1R,2R)-2-hydroxycyclohexyl)-5-methyl-1H-pyrazol-4-yl)pyrazolo[1,5-a]pyridine-3-carbonitrile] was 32 nM.
`CN1CCC(n2cc(-c3cc(Sc4ncccc4F)c4c(C#N)cnn4c3)cn2)CC1=O` (stereo not drawn) [Example 506, 4-((3-fluoropyridin-2-yl)thio)-6-(1-(1-methyl-2-oxopiperidin-4-yl)-1H-pyrazol-4-yl)pyrazolo[1,5-a]pyridine-3-carbonitrile] registered a half-inhibitory concentration (IC50) of 1 nM.
On the same count and under the same terms, the value for `C[C@@H](O)C(=O)N1CCC[C@@H](n2cc(-c3cc(Sc4ccccc4C#N)c4c(C#N)cnn4c3)cn2)C1` [Example 563, 4-((2-cyanophenyl)thio)-6-(1-((R)-1-((R)-2-hydroxypropanoyl)piperidin-3-yl)-1H-pyrazol-4-yl)pyrazolo[1,5-a]pyridine-3-carbonitrile] was 1 nM.
On the same count and under the same terms, the value for `N#Cc1cnn2cc(-c3cn([C@H]4CCCNC4)c4nccnc34)cc(Sc3ncccc3F)c12` [Example 509, (S)-4-((3-fluoropyridin-2-yl)thio)-6-(5-(piperidin-3-yl)-5H-pyrrolo[2,3-b]pyrazin-7-yl)pyrazolo[1,5-a]pyridine-3-carbonitrile] was 22 nM.
